# Earlier results in patent US7592468B2, “Production of Δ 9 tetrahydrocannabinol” (Resolution Chemicals Limited, priority 2003, dated 2009).
# Settings: greater than Δ8-THC
smiles,measurement,value
"CCCCCc1cc(O)c2c(c1)OC(C)(C)[C@@H]1CCC(C)=C[C@@H]21 [Δ9-THC, Delta 9 tetrahydrocannabinol]",psychomimetic activity relative to Δ8-THC,20 times
